From patent US20040253257A1, “Biological compositions and methods for treatment of liver cancer” (priority 2003, published 2004)
Where two headings read alike, the source gives them in different places.

Key:
human liver cancer [1] = test: Swiss mouse model of human liver cancer, growth of tumors; conditions: 31st day from tumor inoculation; 30 days treatment; yeast 0.3 ml oral once per day, CTX 30 mg/kg iv once a week
Description: The animals were generally anaesthetized. […] Afterwards, the opening was sutured and the mice were put back into the cage.
(§1) The mice injected with tumor cells were divided into 4 experimental groups of ten mice per group and one control group. The four experimental groups were triplicated (i.e., using a total of 120 mice in the experimental groups).
(§2) The mice received the biological compositions, untreated yeast cells, CTX or saline on the same day as the tumor cells were transplanted. The mice in group CK2 also started receiving saline on the same day as the other four groups. The biological compositions, untreated yeast cells and saline were administered orally by a feeding tube and the CTX by intravenous injection for 30 consecutive days.

Liver tumor H-22 [2] = test: C3H mouse model of liver cancer (H-22), growth of tumors; conditions: 31st day from tumor inoculation; 30 days treatment; yeast 0.3 ml oral once per day, CTX 30 mg/kg iv per day
Protocol: (§3) The biological composition comprising 10^8 cells per ml of activated and conditioned yeast cells of the strain Saccharomyces cerevisiae Hansen strain AS2.503 was prepared by the methods described in Section 5.1 and subsections therein.
as §1, §2

human liver cancer [3] = conditions: for Number of live animals remaining in the groups after 30 days of treatment: 30 mice per group
Protocol: (§4) The survival time of mice after tumor injection and treatment was studied.
The biological composition comprising […] of activated and conditioned yeast cells of the strain Saccharomyces cerevisiae Hansen strain AS2.503 was prepared by the methods described in Section 5.1 and subsections therein.
The animals were prepared in a similar manner as described in Section 6.1.
(§5) The mice injected with tumor cells were divided into 4 experimental groups of ten mice per group and one control group. The four experimental groups were triplicated (i.e., using a total of 120 mice in the experimental groups). In group 2AY, the mice received 0.3 ml of the biological composition once per day. In group 2NY, the mice received 0.3 ml of the untreated yeast cells once per day. In group 2CTX, the mice were injected intravenously with 30 mg of cyclophosphamide (CTX) per kg body weight once a week for four weeks. In group 2CK1, the mice received 0.3 ml of physiological saline once per day.
as §2, with “2CK2” for “CK2”, “days. The mice were observed over 6 months from the day of their inoculation and survival was recorded. The weight of the mice, the weight of the liver, and the weight of the tumor were determined by standard techniques.” for “days.”

Liver tumor H-22 [4] = conditions: for Number of live animals remaining in the groups after 30 days of treatment: 30 mice per group
Protocol: as §4, §3
The animals were prepared in a similar manner as described in Section 8.1.
as §5, with “per day.” for “once a week for four weeks.”
as §2, with “2CK2” for “CK2”, “days. The mice were observed over 6 months from the day of their inoculation and survival was recorded.” for “days.”

[5] = 0 month after cessation of treatment
[6] = 1 month after cessation of treatment
[7] = 2 months after cessation of treatment
[8] = 3 months after cessation of treatment
[9] = 4 months after cessation of treatment
[10] = 5 months after cessation of treatment
[11] = 6 months after cessation of treatment
[12] = from injection of tumor cells, 30 days treatment
[13] = mice that survived, observed over 6 months

## O=P1(N(CCCl)CCCl)NCCCO1 (stereo not shown) [CTX, cyclophosphamide]
Human liver cancer [1]
  mean weight of liver and standard deviation: 1,372 ± 8 mg
  mean weight of mice and standard deviation: 17 ± 0.9 g
  mean weight of tumor nodules and standard deviation: 249 ± 9 mg
Liver tumor H-22 [2]
  mean weight of liver and standard deviation: 1,351 ± 9 mg
  mean weight of mice and standard deviation: 18.8 ± 0.7 g
  mean weight of tumor nodules and standard deviation: 253 ± 8 mg
Human liver cancer [3]; [5]
  Number of live animals remaining in the groups after 30 days of treatment: 30
Human liver cancer [3]; [6]
  Number of live animals remaining in the groups after 30 days of treatment: 30
Human liver cancer [3]; [7]
  Number of live animals remaining in the groups after 30 days of treatment: 27
Human liver cancer [3]; [8]
  Number of live animals remaining in the groups after 30 days of treatment: 22
Human liver cancer [3]; [9]
  Number of live animals remaining in the groups after 30 days of treatment: 19
Human liver cancer [3]; [10]
  Number of live animals remaining in the groups after 30 days of treatment: 7
Human liver cancer [3]; [11]
  Number of live animals remaining in the groups after 30 days of treatment: 0
Human liver cancer [3]; [12]
  survival of mice bearing liver cancer cells: all died after four months
Human liver cancer [3]; [13]
  mean weight of liver and standard deviation: all animals dead
  mean weight of mice and standard deviation: all animals dead
  mean weight of tumor nodules and standard deviation: all animals dead
Liver tumor H-22 [4]; [5]
  Number of live animals remaining in the groups after 30 days of treatment: 30
Liver tumor H-22 [4]; [6]
  Number of live animals remaining in the groups after 30 days of treatment: 27
Liver tumor H-22 [4]; [7]
  Number of live animals remaining in the groups after 30 days of treatment: 24
Liver tumor H-22 [4]; [8]
  Number of live animals remaining in the groups after 30 days of treatment: 19
Liver tumor H-22 [4]; [9]
  Number of live animals remaining in the groups after 30 days of treatment: 11
Liver tumor H-22 [4]; [10]
  Number of live animals remaining in the groups after 30 days of treatment: 3
Liver tumor H-22 [4]; [11]
  Number of live animals remaining in the groups after 30 days of treatment: 0
Liver tumor H-22 [4]; [12]
  survival of mice bearing liver cancer cells: all died after four months
Liver tumor H-22 [4]; [13]
  mean weight of liver and standard deviation: all animals dead
  mean weight of mice and standard deviation: all animals dead
  mean weight of tumor nodules and standard deviation: all animals dead
